From PMC10107917 (ACS Medicinal Chemistry Letters, 2023) come the findings set out here.

For one assay, the target named is T1, matriptase-2 (MT2) (Homo sapiens, UniProt Q8IU80).
T1 construct: purchased Enzo Life Sciences, Switzerland
T1 sequence (Q8IU80 1-811): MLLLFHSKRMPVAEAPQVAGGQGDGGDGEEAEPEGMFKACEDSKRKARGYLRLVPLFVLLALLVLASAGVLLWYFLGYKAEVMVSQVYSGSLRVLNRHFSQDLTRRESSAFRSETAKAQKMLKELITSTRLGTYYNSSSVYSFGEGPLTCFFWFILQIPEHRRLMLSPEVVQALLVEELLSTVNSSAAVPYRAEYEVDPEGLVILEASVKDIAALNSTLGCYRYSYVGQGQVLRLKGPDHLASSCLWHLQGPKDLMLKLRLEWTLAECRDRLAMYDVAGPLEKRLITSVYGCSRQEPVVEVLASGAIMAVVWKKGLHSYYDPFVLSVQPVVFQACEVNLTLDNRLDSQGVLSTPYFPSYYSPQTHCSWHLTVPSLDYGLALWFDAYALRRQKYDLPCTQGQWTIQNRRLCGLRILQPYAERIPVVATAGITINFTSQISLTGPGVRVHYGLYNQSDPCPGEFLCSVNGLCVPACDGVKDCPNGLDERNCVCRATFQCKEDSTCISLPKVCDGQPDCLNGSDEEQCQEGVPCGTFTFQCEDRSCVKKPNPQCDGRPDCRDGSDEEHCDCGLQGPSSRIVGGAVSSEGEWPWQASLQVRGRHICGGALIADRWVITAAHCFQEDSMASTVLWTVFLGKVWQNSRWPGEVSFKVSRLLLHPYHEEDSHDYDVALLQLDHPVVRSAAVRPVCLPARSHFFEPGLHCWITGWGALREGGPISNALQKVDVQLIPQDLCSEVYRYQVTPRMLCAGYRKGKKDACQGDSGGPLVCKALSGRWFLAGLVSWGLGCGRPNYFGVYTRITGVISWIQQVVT
The assay is described as follows: Selectivity assay against matriptase-2. The class given is biochemical. The settings on record: Figure S1. How it is done:
The selectivities of the strongest furin inhibitors 3, 5, 6, and FI were assessed using commercially available, purified, recombinant proteases, namely, matriptase-1 (MT1) and matriptase-2 (MT2). Both enzymes belong to the type II transmembrane serine proteases, present trypsin-like specificity, and share high structural similarity but differ in biological activity.[33] […]
(§1) The IC50 values (inhibitor concentrations giving 50% inhibition of enzyme activity) were calculated from plots of enzyme activity (% of control sample) versus the inhibitor’s concentration using a four-parameter fit model (GraFit 5.0.12 Erithacus Software Ltd.). The IC50 values were determined from triplicate measurements with at least seven different inhibitor concentrations. The K i values […] were calculated using the Cheng-Prusoff equation, assuming the competitive mode of inhibition, according to the following relationship: IC50 = K i(1+S/Km). All measurements were performed using a Fluostar Omega microplate reader (BMG Labtech, Germany) and 96-well black plates (BRAND, Germany). Recombinant human matriptase-1/ST14 catalytic domain was purchased from R&D Systems, USA. Recombinant human matriptase-2 was obtained from Enzo Life Sciences, Switzerland.
(§2) Soluble human recombinant furin was kindly gifted by Dr Anna Kwiatkowska (group of Prof. Robert Day from Université de Sherbrooke).4
(§3) The following assay buffers were used: […] (matriptase-1 and matriptase-2), pH 7.5 100 mM HEPES with 1 mM CaCl 2 and 1.8 mg/mL BSA (furin). The substrates used in the assays were as follows: for matriptase-1 and matriptase-2 Boc-Gln-Ala-Arg-AMC (Pepta Nova, Germany) in final concentration of 5 µM, for furin […] (Pepta Nova, Germany) in final concentration of 20 µM. Enzymes concentrations were as follows: 1.25 ng/mL of matriptase-1, 1.51 U/mL for matriptase-2, and 1.1 nM for furin. In the case of matriptase-1 and matripase-2 concentrations were calculated according to information provided by the suppliers.
In short, the tested compounds were added to the appropriate protease in different concentrations and incubated in an assay buffer at 37 °C for 30 min. […] Reactions were monitored for at least 40 min at 37 °C. […] The percentage inhibition of an enzyme was calculated relative to the control sample without an inhibitor. The K m value for furin substrate was determined by incubating the enzyme with its substrate in various concentrations as recommended.5 Plots of the substrate concentration versus the initial reaction velocity were analyzed according to Michaelis-Menten equation using GraFit 5.0.12 Erithacus Software Ltd. A double reciprocal (Lineweaver-Burk) plot was used to determine the Michaelis constant K m value. […]

Another assay deals with T2, human recombinant furin (Homo sapiens, UniProt P09958).
T2 construct: Soluble human recombinant furin was kindly gifted; gift of Dr Anna Kwiatkowska (group of Prof. Robert Day, Université de Sherbrooke)
The class given is biochemical. The settings on record: for Ki / IC50: ± SEM; for Ki: Cheng-Prusoff from IC50, competitive mode assumed, Km 1.90 µM; for IC50: triplicate, substrate 20 µM. Here is the method:
Initially, the activities of the furin inhibitors were screened at three concentrations, i.e., 2.4, 24.0, and 77.0 nM (Figure 4). For selected peptides 3, 5, and 6 and the reference FI, the inhibitory constants (Ki) were calculated (Table 2). Except for the bicyclic peptide 4, all of the inhibitors almost completely abolished the enzyme activity at the highest tested concentration. Peptide 4 was explicitly the weakest inhibitor in the series, also when compared with its monocyclic disulfide-bridged counterpart 1. When the inhibitory activities were analyzed at the lowest tested concentration (2.4 nM), three peptides (3, 5, and 6) reduced the furin activity to less than 50% of its initial noninhibited activity. All of them have an additional basic amino acid at their N-termini (in MD simulations this is depicted as a residue with number “0”). […] Such close inhibitory potency was not observed in the case of an analogous pair, i.e., 2 and 5. […] The two disulfide-bridged peptides, FI and 1, differ only at the P4 position, having Lys and Arg, respectively. […]
as §1, §2, §3
In short, the tested compounds were added to the appropriate protease in different concentrations and incubated in an assay buffer at 37 °C for 30 min. After this time, a solution of appropriate substrate was added. Reactions were monitored for at least 40 min at 37 °C. The final volume in each well was 200 µL for matriptases and 100 µL for furin. Measurements were carried out using excitation and emission wavelengths of 380 nm and 450 nm. The percentage inhibition of an enzyme was calculated relative to the control sample without an inhibitor. The K m value for furin substrate was determined by incubating the enzyme with its substrate in various concentrations as recommended.5 Plots of the substrate concentration versus the initial reaction velocity were analyzed according to Michaelis-Menten equation using GraFit 5.0.12 Erithacus Software Ltd. A double reciprocal (Lineweaver-Burk) plot was used to determine the Michaelis constant K m value. K m value determined for furin was 1.90 µM.
Total furin-like enzyme inhibition/activity in PANC-1 cell lysates
Cell line and cell culture. The pancreatic cancer cell line, PANC-1, was obtained from the American Type Culture Collection, ATCC (Manassas, USA). […]

Where two headings read alike, the source gives them in different places. Bridge positions count the residues as written; N and C are the ends. Peptide text beside a SMILES is read from it.

T2 sequence (P09958 108-715 limits assumed): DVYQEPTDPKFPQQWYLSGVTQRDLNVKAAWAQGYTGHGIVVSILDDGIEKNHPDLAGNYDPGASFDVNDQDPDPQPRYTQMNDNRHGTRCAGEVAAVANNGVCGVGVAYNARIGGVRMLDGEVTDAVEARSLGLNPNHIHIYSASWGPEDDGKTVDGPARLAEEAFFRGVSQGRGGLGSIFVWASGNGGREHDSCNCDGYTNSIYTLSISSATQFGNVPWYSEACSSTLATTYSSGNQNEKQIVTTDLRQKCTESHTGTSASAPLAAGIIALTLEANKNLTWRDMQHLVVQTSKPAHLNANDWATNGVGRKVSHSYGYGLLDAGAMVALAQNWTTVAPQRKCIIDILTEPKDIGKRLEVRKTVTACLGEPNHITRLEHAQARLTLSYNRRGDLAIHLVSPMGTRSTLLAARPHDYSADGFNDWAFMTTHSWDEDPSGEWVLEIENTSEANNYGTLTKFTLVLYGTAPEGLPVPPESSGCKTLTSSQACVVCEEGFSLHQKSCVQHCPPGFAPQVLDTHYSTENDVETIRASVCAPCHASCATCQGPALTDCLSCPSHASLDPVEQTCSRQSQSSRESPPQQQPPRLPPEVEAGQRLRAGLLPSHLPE

For `CC[C@H](C)[C@@H]1NC(=O)[C@@H]2CCCN2C(=O)[C@@H]2CCCN2C(=O)[C@H]([C@@H](C)CC)NC(=O)[C@H](CO)NC(=O)[C@H](CCCCN)NC(=O)[C@H](CCCCN)NC(=O)[C@@H](NC(=O)[C@H](CCCNC(=N)N)NC(=O)[C@@H](N)CCCCN)CSSC[C@@H](C(=O)N[C@@H](Cc2ccccc2)C(N)=O)NC1=O` [FI, Lys-Arg-Cys(&)-Lys-Lys-Ser-Ile-Pro-Pro-Ile-Cys(&)-Phe-NH2, reference compound] (H-KRCKKSIPPICF-NH2; disulfide 3-11; N-terminus assumed), at matriptase-2 (MT2), the “activity in assay with MT2” value was “only irrelevant activity”. Further, the entries for the “furin activity versus control with no inhibitor added” value on human recombinant furin (inhibitor 2.4 nM), at human recombinant furin (inhibitor 24.0 nM) and on human recombinant furin (inhibitor 77.0 nM (highest tested concentration)) were 66.76%, 9.86% and 0.31%, respectively. For the same molecule, the inhibition constant (Ki) on human recombinant furin is 0.38 ± 0.02 nM. Further, on human recombinant furin, the IC50 came to 4.42 ± 0.22 nM.
Regarding `CC[C@H](C)[C@@H]1NC(=O)[C@@H]2CCCN2C(=O)[C@@H]2CCCN2C(=O)[C@H]([C@@H](C)CC)NC(=O)[C@H](CO)NC(=O)[C@H](CCCCN)NC(=O)[C@H](CCCCN)NC(=O)[C@@H](NC(=O)[C@H](CCCNC(=N)N)NC(=O)[C@H](CCCNC(=N)N)NC(=O)[C@@H](N)CCCNC(=N)N)CSSC[C@@H](C(=O)N[C@@H](Cc2ccccc2)C(N)=O)NC1=O` [inhibitor 3, Arg-Arg-Arg-Cys(&)-Lys-Lys-Ser-Ile-Pro-Pro-Ile-Cys(&)-Phe-NH2] (H-RRRCKKSIPPICF-NH2; disulfide 4-12), the “activity in assay with MT2” value at matriptase-2 (MT2) was “only irrelevant activity”. Moreover, on human recombinant furin, the Ki stood at 0.27 ± 0.02 nM and the IC50 was 3.07 ± 0.2 nM.
Consider `CC[C@H](C)[C@@H]1NC(=O)[C@@H]2CCCN2C(=O)[C@@H]2CCCN2C(=O)[C@H]([C@@H](C)CC)NC(=O)[C@H](CO)NC(=O)[C@H](CCCCN)NC(=O)[C@H](CCCCN)NC(=O)[C@@H]2CSSC[C@H](NC1=O)C(=O)N[C@@H](Cc1ccccc1)C(=O)N[C@@H](CCCCN)C(=O)N[C@@H](CCCNC(=N)N)C(=O)N[C@@H](CCCNC(=N)N)C(=O)N2` [inhibitor 5, &^1Lys-Arg-Arg-Cys(&^2)-Lys-Lys-Ser-Ile-Pro-Pro-Ile-Cys(&^2)-Phe&^1] (cyclo(KRRCKKSIPPICF); disulfide 4-12), for which, on matriptase-2 (MT2), the “activity in assay with MT2” value is “only irrelevant activity”. For the same molecule, on human recombinant furin, the Ki was 0.21 ± 0.01 nM and the IC50 was determined as 2.41 ± 0.12 nM.
For the molecule `CC[C@H](C)[C@@H]1NC(=O)[C@@H]2CCCN2C(=O)[C@@H]2CCCN2C(=O)[C@H]([C@@H](C)CC)NC(=O)[C@H](CO)NC(=O)[C@H](CCCCN)NC(=O)[C@H](CCCCN)NC(=O)[C@@H]2CSSC[C@H](NC1=O)C(=O)N[C@@H](Cc1ccccc1)C(=O)N[C@@H](CCCNC(=N)N)C(=O)N[C@@H](CCCNC(=N)N)C(=O)N[C@@H](CCCNC(=N)N)C(=O)N2` [inhibitor 6, &^1Arg-Arg-Arg-Cys(&^2)-Lys-Lys-Ser-Ile-Pro-Pro-Ile-Cys(&^2)-Phe&^1] (cyclo(RRRCKKSIPPICF); disulfide 4-12), the “activity in assay with MT2” value on matriptase-2 (MT2) is given as “only irrelevant activity”. At human recombinant furin, the Ki is 0.25 ± 0.01 nM and the IC50 was found to be 2.91 ± 0.17 nM.

For orientation: Ki means the equilibrium dissociation constant of an inhibitor or competing ligand from its target. In general, IC50 refers to the concentration needed to halve the response being measured.
